What was measured:
CFTR G551D mutant = molecular target: T1, CFTR G551D mutant (Homo sapiens, UniProt P13569, G551D); assay: YFP-halide influx assay for the CFTR-G551D mutation (HEK293 cells); assay type: cell-based; conditions: forskolin 10.67 μM
T1 construct: expressed in transfected cells; host or cells: HEK293 cells, reverse transfection with plasmids
Procedure, shortened: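 HEK293 cells reverse-transfected with CFTR G551D and halide-sensitive YFP (H148Q/I152L/F47L), expressed 24 h at 37 °C. YFP fluorescence quenching recorded for 7 s after I⁻ injection. Response = 1−F/F0; EC50 derived from 1−F/F0 vs compound concentration.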

CFTR ΔF508 mutant = molecular target: T2, CFTR ΔF508 mutant (Homo sapiens, UniProt P13569, DEL508-508); assay: YFP-halide influx assay for the CFTR-ΔF508 mutation (CFBE41o- cells); assay type: cell-based; conditions: forskolin 10.67 μM; for EC50: from (1−F/F0) vs concentration plot
T2 construct: expressed in transfected cells; host or cells: CFBE41o- cells, adenoviral transduction
T2 sequence (P13569 with tags, fused parts or gaps DEL508-508): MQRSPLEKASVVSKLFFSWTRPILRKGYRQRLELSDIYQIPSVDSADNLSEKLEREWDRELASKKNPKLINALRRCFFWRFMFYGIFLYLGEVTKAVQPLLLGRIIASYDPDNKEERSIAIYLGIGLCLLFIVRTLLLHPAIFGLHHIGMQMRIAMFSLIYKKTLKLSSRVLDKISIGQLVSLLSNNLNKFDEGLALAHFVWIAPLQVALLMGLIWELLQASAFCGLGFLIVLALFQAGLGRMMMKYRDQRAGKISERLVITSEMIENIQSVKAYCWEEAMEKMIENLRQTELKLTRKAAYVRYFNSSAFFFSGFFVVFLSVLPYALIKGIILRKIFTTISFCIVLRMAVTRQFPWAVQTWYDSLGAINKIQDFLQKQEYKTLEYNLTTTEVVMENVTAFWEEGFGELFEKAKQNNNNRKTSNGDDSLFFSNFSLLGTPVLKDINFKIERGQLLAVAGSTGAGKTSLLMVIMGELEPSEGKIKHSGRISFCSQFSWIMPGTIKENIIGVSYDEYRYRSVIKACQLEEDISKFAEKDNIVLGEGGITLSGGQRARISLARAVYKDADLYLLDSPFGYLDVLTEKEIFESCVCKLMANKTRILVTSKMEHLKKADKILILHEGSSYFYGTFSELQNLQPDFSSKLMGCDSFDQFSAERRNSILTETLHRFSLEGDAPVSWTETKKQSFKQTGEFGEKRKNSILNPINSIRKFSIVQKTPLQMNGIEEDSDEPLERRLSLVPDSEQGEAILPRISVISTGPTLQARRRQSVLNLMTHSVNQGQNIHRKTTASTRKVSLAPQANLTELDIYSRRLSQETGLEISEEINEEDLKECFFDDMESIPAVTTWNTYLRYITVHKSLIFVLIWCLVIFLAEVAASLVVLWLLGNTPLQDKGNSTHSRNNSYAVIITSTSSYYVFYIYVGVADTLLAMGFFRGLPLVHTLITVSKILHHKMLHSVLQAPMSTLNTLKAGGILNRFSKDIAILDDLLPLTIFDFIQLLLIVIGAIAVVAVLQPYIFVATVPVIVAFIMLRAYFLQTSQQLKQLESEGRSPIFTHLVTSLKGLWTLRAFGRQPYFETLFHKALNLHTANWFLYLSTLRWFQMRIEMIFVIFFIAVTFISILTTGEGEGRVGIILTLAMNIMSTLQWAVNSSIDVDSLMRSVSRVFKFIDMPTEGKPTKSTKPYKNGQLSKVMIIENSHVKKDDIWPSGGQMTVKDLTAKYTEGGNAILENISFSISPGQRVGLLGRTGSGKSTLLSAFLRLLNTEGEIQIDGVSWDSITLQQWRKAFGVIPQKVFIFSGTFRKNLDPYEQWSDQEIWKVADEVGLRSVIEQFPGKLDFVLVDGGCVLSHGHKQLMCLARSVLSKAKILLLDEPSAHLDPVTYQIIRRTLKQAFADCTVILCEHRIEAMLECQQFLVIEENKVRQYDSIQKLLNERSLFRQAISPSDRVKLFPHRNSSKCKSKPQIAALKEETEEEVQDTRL
Procedure, shortened: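 CFBE41o- cells transduced with adenovirus expressing CFTR ΔF508 and halide-sensitive YFP H148Q/I152L/F47L, then held 24 h at 27° C or with a CFTR modulator 24 h at 37° C. Iodide-induced quench recorded 2 min; EC50 from (1−F/F0) at 36 s versus concentration.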

T1 sequence (P13569 whole entry G551D): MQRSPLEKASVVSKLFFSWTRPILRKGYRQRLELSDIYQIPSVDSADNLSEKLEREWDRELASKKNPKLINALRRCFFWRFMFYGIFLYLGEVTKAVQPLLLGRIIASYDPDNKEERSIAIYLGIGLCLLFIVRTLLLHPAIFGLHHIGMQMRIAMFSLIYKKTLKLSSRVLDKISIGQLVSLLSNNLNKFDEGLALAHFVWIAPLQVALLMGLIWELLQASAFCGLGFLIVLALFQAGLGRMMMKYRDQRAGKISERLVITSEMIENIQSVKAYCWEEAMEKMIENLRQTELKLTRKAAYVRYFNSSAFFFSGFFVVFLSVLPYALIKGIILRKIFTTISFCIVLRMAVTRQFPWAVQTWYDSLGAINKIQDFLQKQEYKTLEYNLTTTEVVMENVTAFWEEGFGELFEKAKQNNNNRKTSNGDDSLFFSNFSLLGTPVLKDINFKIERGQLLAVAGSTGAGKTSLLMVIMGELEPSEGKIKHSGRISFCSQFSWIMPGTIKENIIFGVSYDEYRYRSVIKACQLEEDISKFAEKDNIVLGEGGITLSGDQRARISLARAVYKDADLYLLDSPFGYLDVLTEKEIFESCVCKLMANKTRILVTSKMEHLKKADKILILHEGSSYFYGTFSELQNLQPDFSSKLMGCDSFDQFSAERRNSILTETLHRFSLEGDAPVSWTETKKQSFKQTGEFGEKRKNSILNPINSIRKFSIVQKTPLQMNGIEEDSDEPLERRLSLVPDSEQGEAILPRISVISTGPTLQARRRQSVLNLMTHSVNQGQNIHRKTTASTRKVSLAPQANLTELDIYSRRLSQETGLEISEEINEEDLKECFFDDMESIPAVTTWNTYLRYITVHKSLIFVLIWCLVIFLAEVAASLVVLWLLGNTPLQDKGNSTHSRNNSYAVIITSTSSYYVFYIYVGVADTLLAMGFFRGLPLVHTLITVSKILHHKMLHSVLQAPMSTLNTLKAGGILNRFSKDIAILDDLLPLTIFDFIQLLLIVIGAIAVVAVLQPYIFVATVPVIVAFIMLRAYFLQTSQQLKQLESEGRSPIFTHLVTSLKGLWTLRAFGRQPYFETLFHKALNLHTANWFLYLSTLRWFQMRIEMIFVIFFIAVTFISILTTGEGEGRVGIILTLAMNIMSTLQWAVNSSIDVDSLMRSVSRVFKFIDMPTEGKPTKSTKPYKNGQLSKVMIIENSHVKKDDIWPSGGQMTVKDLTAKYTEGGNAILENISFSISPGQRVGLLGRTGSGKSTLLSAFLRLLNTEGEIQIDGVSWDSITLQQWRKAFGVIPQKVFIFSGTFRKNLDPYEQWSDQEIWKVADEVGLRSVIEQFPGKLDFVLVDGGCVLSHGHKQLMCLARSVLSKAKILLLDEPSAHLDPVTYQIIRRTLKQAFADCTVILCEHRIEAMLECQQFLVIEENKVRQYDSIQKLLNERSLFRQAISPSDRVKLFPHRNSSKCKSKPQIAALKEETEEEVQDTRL

% Activation (CFTR G551D mutant) [%]	EC50 (CFTR G551D mutant) [nM]	% Activation (CFTR ΔF508 mutant) [%]	EC50 (CFTR ΔF508 mutant) [nM]	SMILES
57.3	1270	92.6	47.3	Nc1cc(S(=O)(=O)c2ccc(OC(F)(F)F)cc2)cnc1C(=O)N1CCC(F)(F)C1 [Compound 203, (3-amino-5-{[4-(trifluoromethoxy)phenyl]sulfonyl}pyridin-2-yl)(3,3-difluoropyrrolidin-1-yl)methanone]
73.9	> 3330	92.5	177	Nc1cc(S(=O)(=O)c2ccc(OC(F)(F)F)cc2)cnc1C(=O)N1CC[C@@H](F)C1 [Compound 204, (3-amino-5-{[4-(trifluoromethoxy)phenyl]sulfonyl}pyridin-2-yl)[(3R)-3-fluoropyrrolidin-1-yl]methanone]
37.6		96.5	59.9	Nc1cc(S(=O)(=O)c2ccc(C(F)(F)F)cc2)cnc1C(=O)N[C@@H]1CCC[C@@H]1O [Compound 205, 3-amino-N-[(1R,2S)-2-hydroxycyclopentyl]-5-{[4-(trifluoromethyl)phenyl]sulfonyl}pyridine-2-carboxamide]
90.3	3150	103.0	74.8	Nc1cc(S(=O)(=O)c2ccc(OC(F)(F)F)cc2)cnc1C(=O)N1CC[C@H](F)C1 [Compound 206, (3-amino-5-{[4-(trifluoromethoxy)phenyl]sulfonyl}pyridin-2-yl)[(3S)-3-fluoropyrrolidin-1-yl]methanone]
15.0	> 10000	78.0	> 667	CN1CC[C@H](NC(=O)c2ncc(S(=O)(=O)c3ccc(OC(F)(F)F)cc3)cc2N)C1 [Compound 207, 3-amino-N-[(3S)-1-methylpyrrolidin-3-yl]-5-{[4-(trifluoromethoxy)phenyl]sulfonyl}pyridine-2-carboxamide]
20.0	> 10000	70.5	290	CN1CC[C@@H](NC(=O)c2ncc(S(=O)(=O)c3ccc(OC(F)(F)F)cc3)cc2N)C1 [Compound 208, 3-amino-N-[(3R)-1-methylpyrrolidin-3-yl]-5-{[4-(trifluoromethoxy)phenyl]sulfonyl}pyridine-2-carboxamide]
5.8	> 10000	44.6	> 667	CN1CC(NC(=O)c2ncc(S(=O)(=O)c3ccc(OC(F)(F)F)cc3)cc2N)C1 [Compound 210, 3-amino-N-(1-methylazetidin-3-yl)-5-{[4-(trifluoromethoxy)phenyl]sulfonyl}pyridine-2-carboxamide]
39.1	> 10000	60.5	> 667	Nc1cc(S(=O)(=O)c2ccc(OC(F)(F)F)cc2)cnc1C(=O)NC1(C(F)(F)F)COC1 [Compound 214, 3-amino-5-{[4-(trifluoromethoxy)phenyl]sulfonyl}-N-[3-(trifluoromethyl)oxetan-3-yl]pyridine-2-carboxamide]
57.6	389	109.8	8.9	Nc1cc(S(=O)(=O)c2ccc(C(F)(F)F)cc2)cnc1C(=O)N[C@H]1CCC[C@@H]1O [Compound 215, 3-amino-N-[(1S,2S)-2-hydroxycyclopentyl]-5-{[4-(trifluoromethyl)phenyl]sulfonyl}pyridine-2-carboxamide]
19.0	> 10000	96.4	49	Nc1cc(S(=O)(=O)c2ccc(C(F)(F)F)cc2)cnc1C(=O)NCC1CC1 [Compound 223, 3-amino-N-(cyclopropylmethyl)-5-{[4-(trifluoromethyl)phenyl]sulfonyl}pyridine-2-carboxamide]

The next lines start with the compound.

SMILES	% Activation (CFTR G551D mutant) [%]	EC50 (CFTR G551D mutant) [nM]	% Activation (CFTR ΔF508 mutant) [%]	EC50 (CFTR ΔF508 mutant) [nM]
COCCNC(=O)c1ncc(S(=O)(=O)c2ccc(C(F)(F)F)cc2)cc1N [Compound 202, 3-amino-N-(2-methoxyethyl)-5-{[4-(trifluoromethyl)phenyl]sulfonyl}pyridine-2-carboxamide]	45.1	1600	97.6	45.5
Nc1cc(S(=O)(=O)c2ccc(C(F)(F)F)cc2)cnc1C(=O)NCC(F)(F)F [Compound 209, 3-amino-N-(2,2,2-trifluoroethyl)-5-{[4-(trifluoromethyl)phenyl]sulfonyl}pyridine-2-carboxamide]	39.3	> 10000	93.8	36.2
CN(Cc1ccc(C(F)(F)F)cc1)S(=O)(=O)c1cnc(C(=O)NCC(O)C(F)(F)F)c(N)c1 (stereo not shown) [Compound 211, 3-amino-5-{methyl[4-(trifluoromethyl)benzyl]sulfamoyl}-N-(3,3,3-trifluoro-2-hydroxypropyl)pyridine-2-carboxamide]	24.0		98.4	24.7
Nc1cc(S(=O)(=O)c2ccc(C(F)(F)F)cc2)cnc1C(=O)NCCC(F)(F)F [Compound 212, 3-amino-5-{[4-(trifluoromethyl)phenyl]sulfonyl}-N-(3,3,3-trifluoropropyl)pyridine-2-carboxamide]	33.0		96.7	47.1
Nc1cc(S(=O)(=O)c2ccc(C(F)(F)F)cc2F)cnc1C(=O)NCC(O)COCC(F)(F)F (stereo not shown) [Compound 213, 3-amino-5-{[2-fluoro-4-(trifluoromethyl)phenyl]sulfonyl}-N-[2-hydroxy-3-(2,2,2-trifluoroethoxy)propyl]pyridine-2-carboxamide]	71.0	414	115.3	6
Nc1cc(S(=O)(=O)c2ccc(C(F)(F)F)cc2F)cnc1C(=O)NCCO [Compound 219, 3-amino-5-{[2-fluoro-4-(trifluoromethyl)phenyl]sulfonyl}-N-(2-hydroxyethyl)pyridine-2-carboxamide]	44.7	1050	99.8	19.2
COc1ccc(S(=O)(=O)c2cnc(C(=O)NCC(O)C(F)(F)F)c(N)c2)cc1 (stereo not shown) [Compound 220, 3-amino-5-[(4-methoxyphenyl)sulfonyl]-N-(3,3,3-trifluoro-2-hydroxypropyl)pyridine-2-carboxamide]	71.6	791	102.0	16.9
COCCOCC(O)CNC(=O)c1ncc(S(=O)(=O)c2ccc(C(F)(F)F)cc2)cc1N (stereo not shown) [Compound 221, 3-amino-N-[2-hydroxy-3-(2-methoxyethoxy)propyl]-5-{[4-(trifluoromethyl)phenyl]sulfonyl}pyridine-2-carboxamide]	55.6	1840	101.7	54.5
COCCCNC(=O)c1ncc(S(=O)(=O)c2ccc(C(F)(F)F)cc2)cc1N [Compound 222, 3-amino-N-(3-methoxypropyl)-5-{[4-(trifluoromethyl)phenyl]sulfonyl}pyridine-2-carboxamide]	48.4	816	108.7	40.8
CC(C)(C)OCC(O)CNC(=O)c1ncc(S(=O)(=O)c2ccc(C(F)(F)F)cc2F)cc1N (stereo not shown) [Compound 224, 3-amino-N-(3-tert-butoxy-2-hydroxypropyl)-5-{[2-fluoro-4-(trifluoromethyl)phenyl]sulfonyl}pyridine-2-carboxamide]	80.6	276	106.0	8.1
CN(CCC(F)(F)F)S(=O)(=O)c1cnc(C(=O)NCC(O)C(F)(F)F)c(N)c1 (stereo not shown) [Compound 225, 3-amino-5-[methyl(3,3,3-trifluoropropyl)sulfamoyl]-N-(3,3,3-trifluoro-2-hydroxypropyl)pyridine-2-carboxamide]	44.2	2210	106.7	30.9
Nc1cc(S(=O)(=O)c2ccc(C(F)(F)F)cc2)cnc1C(=O)N1CCC[C@H]1CO [Compound 226, (3-amino-5-{[4-(trifluoromethyl)phenyl]sulfonyl}pyridin-2-yl)[(2S)-2-(hydroxymethyl)pyrrolidin-1-yl]methanone]	1.4	> 10000	11.9	> 2000
CC(C)(CO)NC(=O)c1ncc(S(=O)(=O)c2ccc(C(F)(F)F)cc2)cc1N [Compound 227, 3-amino-N-(1-hydroxy-2-methylpropan-2-yl)-5-{[4-(trifluoromethyl)phenyl]sulfonyl}pyridine-2-carboxamide]	28.1	> 10000	81.0	> 667
Nc1cc(S(=O)(=O)c2ccc(C(F)(F)F)cc2)cnc1C(=O)NCC1(O)CC1 [Compound 228, 3-amino-N-[(1-hydroxycyclopropyl)methyl]-5-{[4-(trifluoromethyl)phenyl]sulfonyl}pyridine-2-carboxamide]	62.6	1040	123.3	8.5
Nc1cc(S(=O)(=O)c2ccc(C(F)(F)F)cc2)cnc1C(=O)N1C[C@@H](O)[C@H](O)C1 [Compound 229, (3-amino-5-{[4-(trifluoromethyl)phenyl]sulfonyl}pyridin-2-yl) [(3R,4R)-3,4-dihydroxypyrrolidin-1-yl]methanone]	1.0	> 10000	24.0	> 2000
